From the supplement of paper PMC10307832

Key:
Test in all cases: relative viability (nuclei count vs DMSO), 5 days (fraction); higher = more cells survive
MK-8033 + Crizotinib = compound: Cn1cc(-c2cnc3ccc4ccc(CS(=O)(=O)NCc5ccccn5)cc4c(=O)c3c2)cn1 [MK-8033] + C[C@@H](Oc1cc(-c2cnn(C3CCNCC3)c2)cnc1N)c1c(Cl)ccc(F)c1Cl [Crizotinib] (partner 1 µM)
Method in brief: (§1)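 Medians of duplicate plates are given as relative viability. That measure is the nuclei count in treated wells divided by the count in vehicle wells. Counts were taken on 4× images of lung cancer cell lines in 1536-well plates, 5 days after pin-tool dosing the day after seeding with one drug alone or a fixed anchor-drug dose plus five library-drug doses (not always all listed) in √10 steps.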

MK-8033 + Alpelisib = compound: Cn1cc(-c2cnc3ccc4ccc(CS(=O)(=O)NCc5ccccn5)cc4c(=O)c3c2)cn1 [MK-8033] + Cc1nc(NC(=O)N2CCC[C@H]2C(N)=O)sc1-c1ccnc(C(C)(C)C(F)(F)F)c1 [Alpelisib] (partner 2 µM)
Method in brief: as §1

MK-8033 + OSI-027 = compound: Cn1cc(-c2cnc3ccc4ccc(CS(=O)(=O)NCc5ccccn5)cc4c(=O)c3c2)cn1 [MK-8033] + COc1cccc2cc(-c3nc([C@H]4CC[C@H](C(=O)O)CC4)n4ncnc(N)c34)[nH]c12 [OSI-027] (partner 0.5 µM)
Method in brief: as §1

MK-8033 + Foretinib = compound: Cn1cc(-c2cnc3ccc4ccc(CS(=O)(=O)NCc5ccccn5)cc4c(=O)c3c2)cn1 [MK-8033] + COc1cc2c(Oc3ccc(NC(=O)C4(C(=O)Nc5ccc(F)cc5)CC4)cc3F)ccnc2cc1OCCCN1CCOCC1 [Foretinib] (partner 0.25 µM)
Method in brief: as §1

Cell Line | relative viability (MK-8033 + Crizotinib; first compound 0.02 µM) | relative viability (MK-8033 + Crizotinib; first compound 0.06325 µM) | relative viability (MK-8033 + Crizotinib; first compound 0.2 µM) | relative viability (MK-8033 + Crizotinib; first compound 0.6325 µM) | relative viability (MK-8033 + Crizotinib; first compound 2 µM) | relative viability (MK-8033 + Alpelisib; first compound 0.02 µM) | relative viability (MK-8033 + Alpelisib; first compound 0.06325 µM) | relative viability (MK-8033 + Alpelisib; first compound 0.2 µM) | relative viability (MK-8033 + Alpelisib; first compound 0.6325 µM) | relative viability (MK-8033 + Alpelisib; first compound 2 µM) | relative viability (MK-8033 + OSI-027; first compound 0.02 µM) | relative viability (MK-8033 + OSI-027; first compound 0.06325 µM) | relative viability (MK-8033 + OSI-027; first compound 0.2 µM) | relative viability (MK-8033 + OSI-027; first compound 0.6325 µM) | relative viability (MK-8033 + OSI-027; first compound 2 µM) | relative viability (MK-8033 + Foretinib; first compound 0.02 µM) | relative viability (MK-8033 + Foretinib; first compound 0.06325 µM) | relative viability (MK-8033 + Foretinib; first compound 0.2 µM) | relative viability (MK-8033 + Foretinib; first compound 0.6325 µM) | relative viability (MK-8033 + Foretinib; first compound 2 µM)
201T | 1.07 | 0.991 | 1.03 | 0.874 | 1.03 | 1.11 | 0.946 | 0.976 | 1.05 | 1.04 | 0.767 | 0.703 | 0.683 | 0.675 | 0.817 | 1.06 | 1.05 | 1.13 | 1.19 | 1.1
A549 | 0.719 | 0.713 | 0.703 | 0.848 | 0.677 | 0.692 | 0.685 | 0.83 | 0.456 | 0.651 |  |  |  |  |  | 0.962 | 0.853 | 0.892 | 0.985 | 0.945
A-427 | 0.933 | 0.734 | 0.824 | 0.88 | 0.865 | 1.05 | 1.07 | 1.03 | 1.16 | 1.11 | 0.539 | 0.463 | 0.431 | 0.527 | 0.4 | 1.04 | 1.04 | 0.903 | 1.11 | 1
ABC-1 | 1.06 | 1.14 | 1.06 | 0.996 | 1.04 | 1.12 | 1.12 | 1.15 | 1.04 | 1.08 | 0.417 | 0.339 | 0.415 | 0.457 | 0.506 | 1.03 | 0.97 | 0.906 | 0.985 | 1.11
BEN | 0.895 | 0.763 | 0.838 | 0.89 | 0.773 | 0.914 | 0.89 | 1 | 1.08 | 1 | 0.305 | 0.298 | 0.295 | 0.284 | 0.244 | 0.642 | 0.541 | 0.527 | 0.606 | 0.646
CAL-12T | 0.62 | 0.608 | 0.646 | 0.693 | 0.474 | 1.08 | 1.08 | 1.08 | 1.25 | 1.06 | 0.551 | 0.655 | 0.519 | 0.695 | 0.536 | 1.05 | 1.14 | 1.03 | 1.09 | 1.11
COR-L23 | 0.58 | 0.721 | 0.489 | 0.73 | 0.506 | 0.71 | 0.864 | 0.74 | 0.828 | 0.645 | 0.814 | 0.743 | 0.701 | 0.749 | 0.736 | 0.934 | 0.997 | 0.986 | 1.04 | 0.993
COR-L 105 | 0.797 | 0.696 | 0.917 | 0.861 | 0.802 | 0.822 | 1.07 | 0.962 | 0.928 | 0.733 | 0.687 | 0.429 | 0.635 | 0.638 | 0.671 | 1.35 | 0.976 | 0.992 | 1.05 | 0.907
Calu-6 | 0.831 | 0.77 | 0.704 | 0.828 | 0.695 | 1.02 | 1.02 | 0.843 | 0.941 | 0.916 |  |  |  |  |  | 0.833 | 0.815 | 0.874 | 0.914 | 0.81
ChaGo-K-1 | 1.11 | 1.02 | 1.11 | 1.1 | 0.726 |  |  |  |  |  | 0.51 | 0.536 | 0.528 | 0.552 | 0.511 | 0.891 | 0.834 | 1.05 | 0.967 | 0.628
EBC-1 | 0.158 | 0.16 | 0.193 | 0.193 | 0.188 | 0.832 | 0.686 | 0.904 | 0.678 | 0.207 |  |  |  |  |  | 0.103 | 0.0762 | 0.0977 | 0.126 | 0.0876
EKVX | 0.966 | 0.735 | 0.799 | 0.908 | 0.601 | 0.812 | 0.747 | 0.787 | 0.808 | 0.903 | 0.731 | 0.665 | 0.637 | 0.642 | 0.723 | 0.849 | 0.702 | 0.79 | 0.48 | 0.968
EMC-BAC-2 | 0.76 | 0.77 | 0.718 | 0.783 | 0.701 | 0.666 | 0.709 | 0.743 | 0.713 | 0.68 | 0.384 | 0.408 | 0.395 | 0.375 | 0.386 | 0.899 | 0.942 | 0.936 | 1.05 | 0.971
EPLC-272H | 1.09 |  | 0.88 | 0.843 | 0.866 | 0.91 |  | 0.877 | 0.948 | 1.02 | 0.271 | 0.291 | 0.299 | 0.306 | 0.276 | 0.608 | 0.537 | 0.61 | 0.605 | 0.507
